Among the data in patent US8691865B2 (AbbVie Inc., priority 2008, dated 2014) are IC50 values, retold here.

Where only a bound is given, the exact number is not on record here.

One assay deals with human Cav2.2 (Homo sapiens, UniProt Q00975). Put plainly: Assessment of calcium channel activity using FLIPR (Ca2+ influx in IMR32 cells). It counts as cell-based.
Chain of human Cav2.2 (Q00975 whole entry): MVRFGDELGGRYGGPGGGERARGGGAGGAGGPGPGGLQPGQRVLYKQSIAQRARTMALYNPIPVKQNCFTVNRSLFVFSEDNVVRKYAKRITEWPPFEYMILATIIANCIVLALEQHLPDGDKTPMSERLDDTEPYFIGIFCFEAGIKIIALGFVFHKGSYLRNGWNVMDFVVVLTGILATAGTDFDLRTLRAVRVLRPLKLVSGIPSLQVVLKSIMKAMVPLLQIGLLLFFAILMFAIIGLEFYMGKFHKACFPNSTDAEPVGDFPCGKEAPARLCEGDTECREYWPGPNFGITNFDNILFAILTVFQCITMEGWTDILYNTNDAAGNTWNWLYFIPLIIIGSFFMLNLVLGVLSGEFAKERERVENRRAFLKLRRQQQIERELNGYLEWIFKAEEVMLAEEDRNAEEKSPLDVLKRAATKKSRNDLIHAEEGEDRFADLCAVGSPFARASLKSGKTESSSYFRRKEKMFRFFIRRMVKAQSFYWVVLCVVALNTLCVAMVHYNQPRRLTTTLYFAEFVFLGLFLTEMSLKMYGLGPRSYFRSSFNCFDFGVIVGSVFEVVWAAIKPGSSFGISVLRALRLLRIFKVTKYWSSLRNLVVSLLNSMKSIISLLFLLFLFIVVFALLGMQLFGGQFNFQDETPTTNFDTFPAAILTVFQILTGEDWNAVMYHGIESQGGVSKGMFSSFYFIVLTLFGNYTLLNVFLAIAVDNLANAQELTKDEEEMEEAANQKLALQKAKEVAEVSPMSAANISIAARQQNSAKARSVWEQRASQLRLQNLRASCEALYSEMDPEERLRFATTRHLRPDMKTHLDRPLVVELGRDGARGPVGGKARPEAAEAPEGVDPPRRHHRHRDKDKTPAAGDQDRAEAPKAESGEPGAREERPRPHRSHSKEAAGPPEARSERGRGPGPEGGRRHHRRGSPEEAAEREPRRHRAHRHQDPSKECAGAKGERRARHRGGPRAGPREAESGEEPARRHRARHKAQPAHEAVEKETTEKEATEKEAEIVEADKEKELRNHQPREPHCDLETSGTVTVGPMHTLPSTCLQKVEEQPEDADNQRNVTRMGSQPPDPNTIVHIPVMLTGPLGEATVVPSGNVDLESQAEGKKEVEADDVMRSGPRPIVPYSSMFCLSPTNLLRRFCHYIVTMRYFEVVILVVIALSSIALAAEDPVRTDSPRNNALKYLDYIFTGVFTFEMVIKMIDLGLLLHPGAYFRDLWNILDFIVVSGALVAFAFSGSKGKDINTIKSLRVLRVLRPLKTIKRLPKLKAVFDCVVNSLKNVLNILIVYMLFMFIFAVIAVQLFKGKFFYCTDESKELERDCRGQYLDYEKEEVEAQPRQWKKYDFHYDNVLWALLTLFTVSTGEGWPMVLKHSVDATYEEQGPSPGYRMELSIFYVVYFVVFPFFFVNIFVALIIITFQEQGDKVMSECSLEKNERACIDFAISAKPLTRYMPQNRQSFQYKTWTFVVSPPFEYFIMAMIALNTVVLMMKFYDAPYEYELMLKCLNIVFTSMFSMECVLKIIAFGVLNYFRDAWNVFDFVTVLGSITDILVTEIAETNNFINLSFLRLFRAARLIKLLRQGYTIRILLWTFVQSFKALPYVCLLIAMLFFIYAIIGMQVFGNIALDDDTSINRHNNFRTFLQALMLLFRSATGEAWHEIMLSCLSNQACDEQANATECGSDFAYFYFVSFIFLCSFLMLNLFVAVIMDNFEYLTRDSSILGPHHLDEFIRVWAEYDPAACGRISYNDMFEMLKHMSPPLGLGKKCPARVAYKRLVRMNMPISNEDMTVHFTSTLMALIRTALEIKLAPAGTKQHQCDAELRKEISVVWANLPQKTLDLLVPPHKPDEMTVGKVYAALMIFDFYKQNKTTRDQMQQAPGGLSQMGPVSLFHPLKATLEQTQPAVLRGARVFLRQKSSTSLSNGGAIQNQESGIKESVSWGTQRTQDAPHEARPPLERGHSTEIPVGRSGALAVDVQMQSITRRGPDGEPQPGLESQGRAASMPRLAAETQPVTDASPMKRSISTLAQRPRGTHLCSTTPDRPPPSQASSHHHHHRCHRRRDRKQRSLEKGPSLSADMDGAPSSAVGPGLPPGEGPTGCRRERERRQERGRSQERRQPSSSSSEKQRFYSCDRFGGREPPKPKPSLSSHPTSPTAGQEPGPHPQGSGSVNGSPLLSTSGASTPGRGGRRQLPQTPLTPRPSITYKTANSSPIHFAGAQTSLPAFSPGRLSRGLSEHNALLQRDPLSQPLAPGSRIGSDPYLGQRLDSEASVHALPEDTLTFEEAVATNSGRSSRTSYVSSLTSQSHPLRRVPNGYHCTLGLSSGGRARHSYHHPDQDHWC
Chain of human Cav2.2 (P54289 25-956 partner limits assumed): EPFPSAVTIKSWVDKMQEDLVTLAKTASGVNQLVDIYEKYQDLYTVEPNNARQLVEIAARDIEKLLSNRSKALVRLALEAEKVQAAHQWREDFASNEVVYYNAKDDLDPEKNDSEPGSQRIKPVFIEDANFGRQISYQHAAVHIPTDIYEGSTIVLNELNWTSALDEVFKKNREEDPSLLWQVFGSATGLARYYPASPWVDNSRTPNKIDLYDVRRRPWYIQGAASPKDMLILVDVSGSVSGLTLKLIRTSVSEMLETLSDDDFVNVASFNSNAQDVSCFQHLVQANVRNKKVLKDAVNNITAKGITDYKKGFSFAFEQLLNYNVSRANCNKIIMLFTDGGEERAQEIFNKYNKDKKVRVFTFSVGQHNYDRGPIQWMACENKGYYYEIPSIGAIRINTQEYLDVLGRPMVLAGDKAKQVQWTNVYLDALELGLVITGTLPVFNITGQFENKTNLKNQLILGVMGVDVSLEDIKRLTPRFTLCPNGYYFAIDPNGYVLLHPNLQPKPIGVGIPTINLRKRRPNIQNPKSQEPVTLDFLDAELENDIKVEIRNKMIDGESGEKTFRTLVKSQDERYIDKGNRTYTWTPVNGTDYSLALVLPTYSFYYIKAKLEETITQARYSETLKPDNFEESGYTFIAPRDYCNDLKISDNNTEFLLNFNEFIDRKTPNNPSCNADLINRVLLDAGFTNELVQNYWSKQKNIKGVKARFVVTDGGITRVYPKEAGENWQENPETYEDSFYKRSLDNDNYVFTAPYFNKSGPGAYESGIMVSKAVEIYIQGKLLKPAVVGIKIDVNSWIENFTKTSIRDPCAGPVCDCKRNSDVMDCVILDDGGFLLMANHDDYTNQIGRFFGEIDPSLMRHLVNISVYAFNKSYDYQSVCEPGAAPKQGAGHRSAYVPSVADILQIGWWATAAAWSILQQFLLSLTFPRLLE
Chain of human Cav2.2 (P54289 957-1103 partner limits assumed): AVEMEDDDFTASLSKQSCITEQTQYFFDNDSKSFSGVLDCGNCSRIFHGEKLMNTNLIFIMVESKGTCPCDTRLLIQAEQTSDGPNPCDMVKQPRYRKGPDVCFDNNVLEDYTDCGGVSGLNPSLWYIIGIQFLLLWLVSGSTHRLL
Chain of human Cav2.2 (P54284 whole entry partner): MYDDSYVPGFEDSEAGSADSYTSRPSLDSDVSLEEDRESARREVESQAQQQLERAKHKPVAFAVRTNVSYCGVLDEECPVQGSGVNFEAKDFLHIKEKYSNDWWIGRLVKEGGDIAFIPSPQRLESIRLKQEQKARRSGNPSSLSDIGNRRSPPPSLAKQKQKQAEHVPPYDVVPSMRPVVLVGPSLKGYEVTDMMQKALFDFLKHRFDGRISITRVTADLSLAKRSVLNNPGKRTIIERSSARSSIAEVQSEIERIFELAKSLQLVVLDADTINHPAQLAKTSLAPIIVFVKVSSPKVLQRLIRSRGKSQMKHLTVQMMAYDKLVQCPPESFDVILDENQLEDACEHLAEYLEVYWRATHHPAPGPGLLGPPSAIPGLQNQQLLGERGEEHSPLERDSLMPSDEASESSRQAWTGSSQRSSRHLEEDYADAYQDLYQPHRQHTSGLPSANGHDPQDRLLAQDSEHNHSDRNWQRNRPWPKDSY
Settings: not given
On the procedure: (i) In Vitro Methods—Assessment of Calcium Channel Activity Using FLIPR:
The IMR32 cells were maintained in MEM media containing 10% (v/v) FBS, 1% (v/v) antibiotic/antimitotic, 1% (v/v) sodium pyruvate and 1% (v/v) MEM NEAA. Following dissociation in 0.05% (v/v) trypsin/EDTA, cells were seeded into black 1×96-well plates (Corning Cellbind) at a density of 1−1.2×10^5 cells/well and incubated in the maintenance media above for 48 hours at 37° C. […] To determine the IC50 values, the percent inhibition of the compound at each concentration was determined relative to the activity in the absence of inhibitor, and data was fitted using non-linear regression sigmoidal dose response curve analysis with GraphPad Prism®.
For orientation: IC50 means the concentration at which inhibition is half-maximal. As for `CN[C@@H](CC(C)C)C(=O)N[C@H]1CC[C@@H]2CN(Cc3ccccc3)C[C@@H]21` [Example 348, N^1-[(3aR,4S,6aS)-2-benzyloctahydrocyclopenta[c]pyrrol-4-yl]-N^2-methyl-L-leucinamide], the IC50 was more than 30 µM. The same measure, in the same setting: the same measure for `O=S(=O)(N[C@H]1CC[C@@H]2CN(c3cccc(C(F)(F)F)n3)C[C@@H]21)c1ccccc1Cl` [Example 701, 2-chloro-N-{(3aR,4S,6aS)-2-[6-(trifluoromethyl)pyridin-2-yl]octahydrocyclopenta[c]pyrrol-4-yl}benzenesulfonamide]: 4.5 µM; for `CC[C@H](C)[C@H](NC)C(=O)N[C@H]1CC[C@@H]2CN(Cc3ccccc3)C[C@@H]21` [Example 353, N^1-[(3aR,4S,6aS)-2-benzyloctahydrocyclopenta[c]pyrrol-4-yl]-N^2-methyl-L-isoleucinamide]: more than 30 µM; for `CC(C)(C)NC(=O)N[C@H]1CC[C@@H]2CN(c3ccc(OC(F)(F)F)cc3)C[C@@H]21` [Example 778, 1-tert-butyl-3-{(3aR,4S,6aS)-2-[4-(trifluoromethoxy)phenyl]octahydrocyclopenta[c]pyrrol-4-yl}urea]: 4.27 µM. `COc1ccc(N2C[C@H]3CC[C@H](NC(=O)[C@@H]4C[C@@H](F)CN4)[C@H]3C2)cc1` [Example 653, (4R)-4-fluoro-N-[(3aR,4S,6aS)-2-(4-methoxyphenyl)octahydrocyclopenta[c]pyrrol-4-yl]-L-prolinamide]: the IC50 was more than 30 µM. On the same count and under the same terms, the figure for `O=S(=O)(N[C@H]1CC[C@@H]2CN(c3cccc(C(F)(F)F)n3)C[C@@H]21)c1ccc(F)cc1` [Example 705, 4-fluoro-N-{(3aR,4S,6aS)-2-[6-(trifluoromethyl)pyridin-2-yl]octahydrocyclopenta[c]pyrrol-4-yl}benzenesulfonamide] is 3.82 µM; for `Cc1ccc(C(=O)N[C@H]2CC[C@@H]3CN(c4cccc(C(F)(F)F)n4)C[C@@H]32)o1` [Example 576, 5-methyl-N-{(3aR,4S,6aS)-2-[6-(trifluoromethyl)pyridin-2-yl]octahydrocyclopenta[c]pyrrol-4-yl}-2-furamide] it is 1.08 µM; for `O=C(N[C@H]1CC[C@@H]2CN(c3ccc(F)cc3C(F)(F)F)C[C@@H]21)[C@@H]1C[C@@H](F)CN1` [Example 698, (4R)-4-fluoro-N-{(3aR,4S,6aS)-2-[4-fluoro-2-(trifluoromethyl)phenyl]octahydrocyclopenta[c]pyrrol-4-yl}-L-prolinamide] it is 1.52 µM.

On to `O=C(N[C@H]1CC[C@H]2CN(Cc3cccc(C(F)(F)F)c3)C[C@H]21)C(c1ccccc1)c1ccccc1` (relative stereo) [Example 135, 2,2-diphenyl-N-{(3aS*,4S*,6aR*)-2-[3-(trifluoromethyl)benzyl]octahydrocyclopenta[c]pyrrol-4-yl}acetamide], for which the IC50 turned out to be 0.67 µM. On the same count and under the same terms, the figure for `CCC[C@H](NC(=O)OC(C)C)C(=O)N[C@H]1CC[C@@H]2CN(c3ccc(C(F)(F)F)cn3)C[C@@H]21` [Example 263, isopropyl(S)-1-oxo-1-((3aR,4S,6aS)-2-(5-(trifluoromethyl)pyridin-2-yl)octahydrocyclopenta[c]pyrrol-4-ylamino)pentan-2-ylcarbamate] is more than 30 µM; for `O=C(N[C@H]1CC[C@@H]2CN(c3ccc(F)c(C(F)(F)F)c3)C[C@@H]21)[C@@H]1C[C@@H](F)CN1` [Example 626, (4R)-4-fluoro-N-{(3aR,4S,6aS)-2-[4-fluoro-3-(trifluoromethyl)phenyl]octahydrocyclopenta[c]pyrrol-4-yl}-L-prolinamide] it is 4.52 µM; for `CCC[C@@H](C(=O)N[C@H]1CC[C@@H]2CN(S(=O)(=O)c3cccs3)C[C@@H]21)N(C)C(=O)OC(C)(C)C` [Example 531, tert-butyl methyl((S)-1-oxo-1-((3aR,4S,6aS)-2-(thiophen-2-ylsulfonyl)octahydrocyclopenta[c]pyrrol-4-ylamino)pentan-2-yl)carbamate] it is 3.49 µM. With `CN[C@@H](CC(C)C)C(=O)N[C@H]1CC[C@@H]2CN(c3ccc(F)c(OC(F)(F)F)c3)C[C@@H]21` [Example 772, N-{(3aR,4S,6aS)-2-[4-fluoro-3-(trifluoromethoxy)phenyl]octahydrocyclopenta[c]pyrrol-4-yl}-N^2-methyl-L-leucinamide], the IC50 came to 1.08 µM. Regarding `O=C(N[C@H]1CC[C@@H]2CN(c3cccc(C(F)(F)F)n3)C[C@@H]21)[C@@H]1CC(F)(F)CN1` [Example 595, 4,4-difluoro-N-{(3aR,4S,6aS)-2-[6-(trifluoromethyl)pyridin-2-yl]octahydrocyclopenta[c]pyrrol-4-yl}-L-prolinamide], the IC50 came to 2.18 µM.

With `CC(C)CC(C(=O)NC1CCC2CN(Cc3ccc(F)c(C(F)(F)F)c3)CC21)N(C)C(=O)OC(C)(C)C` [Example 312, tert-butyl(S)-1-((3aS,4R,6aR)-2-(4-fluoro-3-(trifluoromethyl)benzyl)octahydrocyclopenta[c]pyrrol-4-ylamino)-4-methyl-1-oxopentan-2-ylmethyl)carbamate], the IC50 amounted to 1.59 µM. For the compound `CC(C)CC(=O)N[C@@H]1CC[C@H]2CN(Cc3ccccc3)C[C@H]21` [Example 236, N-[(3aS,4R,6aR)-2-benzyloctahydrocyclopenta[c]pyrrol-4-yl]-3-methylbutanamide], the IC50 was more than 30 µM.

The same assay, now with this note: read-out: IC50 (μM) or percent inhibition (* indicates 3 minute incubation, otherwise 60 minute); IC50; 60 minute pre-incubation with compound; IMR32 cells, 80 mM KCl depolarization.
In the case of `CC(C)C(C(=O)N[C@H]1CC[C@@H]2CN(Cc3ccccc3)C[C@@H]21)c1ccccc1` (stereo partly drawn) [Example 35, N-[(3aR,4S,6aS)-2-benzyloctahydrocyclopenta[c]pyrrol-4-yl]-3-methyl-2-phenylbutanamide], the IC50 is 3.26 µM. Still for that read-out and setting: the figure for `CC[C@H](C(=O)N[C@H]1CC[C@@H]2CN(Cc3ccccc3)C[C@@H]21)c1ccccc1` [Example 33, (2S)-N-[(3aR,4S,6aS)-2-benzyloctahydrocyclopenta[c]pyrrol-4-yl]-2-phenylbutanamide] is 7.41 µM; for `CC(C)[C@@H](CC(=O)N[C@H]1CC[C@@H]2CN(S(=O)(=O)c3cccc(C(F)(F)F)c3)C[C@@H]21)N(C)C` [Example 498, (3R)-3-(dimethylamino)-4-methyl-N-((3aR,4S,6aS)-2-{[3-(trifluoromethyl)phenyl]sulfonyl}octahydrocyclopenta[c]pyrrol-4-yl)pentanamide] it is 1.59 µM; for `CN[C@@H](CC(C)(C)C)C(=O)N(C)[C@H]1CC[C@@H]2CN(S(=O)(=O)c3ccc(C(F)(F)F)cc3Cl)C[C@@H]21` [Example 439, N^1-((3aR,4S,6aS)-2-{[2-chloro-4-(trifluoromethyl)phenyl]sulfonyl}octahydrocyclopenta[c]pyrrol-4-yl)-N^1,N^2,4-trimethyl-L-leucinamide] it is 1.42 µM.

Turning to `CN[C@@H](CC(C)C)C(=O)N[C@H]1CC[C@@H]2CN(Cc3ccc(C(F)(F)F)cc3)C[C@@H]21` [Example 380, N^2-methyl-N^1-{(3aR,4S,6aS)-2-[4-(trifluoromethyl)benzyl]octahydrocyclopenta[c]pyrrol-4-yl}-L-leucinamide], the IC50 was 9.71 µM. The same measure, in the same setting: the same measure for `CC(C)C(C(=O)N[C@H]1CC[C@@H]2CN(Cc3ccccc3)C[C@@H]21)c1ccc(Cl)cc1` (stereo partly drawn) [Example 43, N-[(3aR,4S,6aS)-2-benzyloctahydrocyclopenta[c]pyrrol-4-yl]-2-(4-chlorophenyl)-3-methylbutanamide]: 1.49 µM. With `O=C(N[C@H]1CC[C@H]2CN(CCCc3ccc(C(F)(F)F)cc3)C[C@H]21)C(C1CCCCC1)C1CCCCC1` [Example 70, 2,2-dicyclohexyl-N-((3aS,4S,6aR)-2-{3-[4-(trifluoromethyl)phenyl]propyl}octahydrocyclopenta[c]pyrrol-4-yl)acetamide], the IC50 worked out at 1.93 µM. Still for that read-out and setting: the figure for “4-methyl-N^1-{(3aR,4S,6aS)-2-[2-(methylsulfonyl)pyrimidin-5-yl]octahydrocyclopenta[c]pyrrol-4-yl}-L-leucinamide [Example 442]” is 7.18 µM; for `CC(C)C[C@H](NS(=O)(=O)c1ccccc1)C(=O)N[C@@H]1CC[C@H]2CN(Cc3cccc(C(F)(F)F)c3)C[C@H]21` [Example 523, N^2-(phenylsulfonyl)-N^1-{(3aS,4R,6aR)-2-[3-(trifluoromethyl)benzyl]octahydrocyclopenta[c]pyrrol-4-yl}-L-leucinamide] it is 4.44 µM. Still for that read-out and setting: the same measure for `O=C(N[C@H]1CC[C@@H]2CN(S(=O)(=O)c3cccc(C(F)(F)F)c3)C[C@@H]21)[C@@H]1Cc2ccccc2CN1` [Example 391, (3S)-N-((3aR,4S,6aS)-2-{[3-(trifluoromethyl)phenyl]sulfonyl}octahydrocyclopenta[c]pyrrol-4-yl)-1,2,3,4-tetrahydroisoquinoline-3-carboxamide]: 1.45 µM. On to `CCC[C@H](NC)C(=O)N[C@H]1CC[C@@H]2CN(S(=O)(=O)c3ccc(C#N)cc3)C[C@@H]21` [Example 536, N^1-{(3aR,4S,6aS)-2-[(4-cyanophenyl)sulfonyl]octahydrocyclopenta[c]pyrrol-4-yl}-N^2-methyl-L-norvalinamide], for which the IC50 is 8.37 µM. On the same count and under the same terms, the same measure for `CC(C)C[C@@H](C(=O)N[C@H]1CC[C@H]2CN(Cc3cccc(C(F)(F)F)c3)C[C@H]21)N(C)S(C)(=O)=O` [Example 167, N^2-methyl-N^2-(methylsulfonyl)-N^1-{(3aS,4S,6aR)-2-[3-(trifluoromethyl)benzyl]octahydrocyclopenta[c]pyrrol-4-yl}-L-leucinamide]: 1.21 µM; for `CCC[C@@H](C(=O)N[C@@H]1CC[C@H]2CN(Cc3ccccc3)C[C@H]21)N(C)C(=O)OC(C)(C)C` [Example 233, tert-butyl(S)-1-((3aS,4R,6aR)-2-benzyloctahydrocyclopenta[c]pyrrol-4-ylamino)-1-oxopentan-2-yl(methyl)carbamate]: 2.8 µM.
